Tested on: participants with T1D
Assay: Randomized crossover clinical trial (NCT04201496): CGM glycemic outcomes with 5 mg daily empagliflozin adjunctive to AID (Control-IQ, CIQ) or PLGS (Basal-IQ, BIQ)
Type: in vivo, human
Conditions: for % CGM time <50 mg/dL (<2.8 mmol/L) / % CGM time <60 mg/dL (<3.3 mmol/L) / % CGM time <70 mg/dL (<3.9 mmol/L) / % CGM time >180 mg/dL (>10.0 mmol/L) / % CGM time >250 mg/dL (>13.9 mmol/L) / % CGM time >300 mg/dL (>16.7 mmol/L) / CGM HBGI / CGM LBGI: median (IQR)
Description: FIG. 2 presents a study analysis relative to baseline, control IQ (CIQ) (e.g., AID), and basal IQ (BIQ) (e.g., PLGS) implementation, according to investigation that is demonstrable of one or more embodiments herein. Therein, an experimental arm (G1, G2) providing an initial daily dose of 5 mg empagliflozin (EMPA) is depicted against a control arm (G3, G4) without such dosing (NOEMPA). Relative characteristics of the analysis are provided below.
Study Design: A single-center, randomized, controlled, unblinded, crossover clinical trial (NCT04201496) compared four parallel groups, two groups in the experimental arm (EMPA) with 5 mg daily empagliflozin as adjunctive therapy to PLGS or AID, and two groups in the control arm (NOEMPA) with no drug and with a PLGS system (Basal-IQ, Tandem Diabetes Care) or AID system (Control-IQ, Tandem Diabetes Care). The groups within each arm differed from one another in the order of the randomly assigned crossover technological intervention, relative to PLGS being followed by AID or AID being followed by PLGS, respectively (FIG. 4). The study protocol was approved by the University of Virginia Institutional Review Board (IRB). An investigational device exemption (IDE), including an investigational new drug (IND) application for empagliflozin, was approved by the FDA. Safety aspects were overseen by an external data and safety monitoring board (DSMB). Participants: Major inclusion criteria were T1D treated with insulin for at least one year, use of continuous subcutaneous insulin infusion therapy for at least six months, age 18-65 yrs., no use of glucose lowering agents other than insulin, and Hb1Ac<9% (75 mmol/mol). Randomization: A (1:1:1:1) randomization assigned participants to either Group 1, AID-EMPA (4 weeks) followed by PLGS-EMPA (2 weeks), Group 2, PLGS-EMPA (2 weeks) followed by AID-EMPA (4 weeks), Group 3, AID-NOEMPA (4 weeks) followed by PLGS-NOEMPA (2 weeks), and Group 4, PLGS-NOEMPA (2 weeks) followed by AID-NOEMPA (4 weeks). Procedures: After confirmation of eligibility, participants underwent study equipment and medication training (experimental arm), or only study equipment training (control arm). Study equipment consisted of Dexcom G6® CGM (Dexcom Inc., San Diego, CA), Contour® Next blood glucose (Ascensia Diabetes Care, Basel, Switzerland) and Precision Xtra® blood ketone meters (Abbott, Alameda, CA) with their respective test strips; infusion sets, and the use of the t:slim X2™ insulin pump with Basal-IQ or Control-IQ technologies (Tandem Diabetes Care, San Diego, CA), according to randomization. […] Participants in the experimental arm were asked to record two days of baseline ketone values before initiating the use of the study drug. Thereafter, participants were directed to use the study CGM with EMPA for 1-2 weeks. A tolerance to the medication was assessed prior to the starting of the next study phase, including adherence to the protocol, ketone testing 2-4 times per day with monitored values not greater than 0.6 mmol/L on at least two successive occasions (the first testing upon waking in a fasted state), no adverse events relating to perineal infection or symptomatic postural hypotension, and no evidence of significant hypoglycemia <54 mg/dL, or any other listed adverse effects of the medication. Participants in the control arm were directed to use the study CGM for 1-2 weeks. Sample Size: The total sample size was projected to be 40 participants, assuming 1) 1:1:1:1 randomization; 2) 90% power and type 1 error a=0.01, further reinforcing the feasibility of hierarchical analyses. The projected recruitment sample was n=50, to accommodate up to 20% attrition rate without sacrificing statistical power. Analytical methods: For the primary analysis, TIR during the day in the 4-week AID period was compared between the two EMPA groups versus the two NOEMPA groups using a linear mixed-effects regression model while adjusting for pre-randomization HbAlc and age. […]

[1] = overall, CIQ-EMPA vs. CIQ-NOEMPA, BIQ-EMPA vs. BIQ-NOEMPA
[2] = overall, PLGS-EMPA (see Tables 4 and 5)
[3] = overnight, CIQ-EMPA vs. BIQ-NOEMPA, BIQ-EMPA vs. CIQ-NOEMPA
[4] = overnight, CIQ-EMPA vs. CIQ-NOEMPA, BIQ-EMPA vs. BIQ-NOEMPA
[5] = overnight, PLGS-EMPA compared to PLGS-NOEMPA

## OC[C@H]1O[C@@H](c2ccc(Cl)c(Cc3ccc(O[C@H]4CCOC4)cc3)c2)[C@H](O)[C@@H](O)[C@@H]1O [BIQ-EMPA, empagliflozin]
overall, CIQ-EMPA vs. BIQ-NOEMPA, BIQ-EMPA vs. CIQ-NOEMPA
  Difference: CGM LBGI: 0.2
[1]
  Difference: CGM HBGI: −4.3
  Difference: CGM LBGI: 0.1
  Difference: CGM SD: -14.3 mg/dL
[2]
  decrease in mean glucose overall: 24 mg/dL
  decrease in percent time in hyperglycemia: 18.6%
overall, n = 16, mean ± SD
  % CGM time <70-140 mg/dL (<3.9-7.8 mmol/L): 56.8 ± 16.5%
  % CGM time <70-180 mg/dL (<3.9-10.0 mmol/L): 79 ± 15.7%
  CGM CV (%): 32.1 ± 3.7%
  CGM SD: 46 ± 14.6 mg/dL
overall, n = 16
  % CGM time <50 mg/dL (<2.8 mmol/L): 0(0-0.4) %
  % CGM time <60 mg/dL (<3.3 mmol/L): 0.5(0.2-0.9) %
  % CGM time <70 mg/dL (<3.9 mmol/L): 1.7(0.9-2.7) %
  % CGM time >180 mg/dL (>10.0 mmol/L): 15(6.7-22.7) %
  % CGM time >250 mg/dL (>13.9 mmol/L): 1.7(0.2-3.6) %
  % CGM time >300 mg/dL (>16.7 mmol/L): 0.2(0-0.6) %
  CGM HBGI: 3.3(1.8-4.7)
  CGM LBGI: 0.7(0.6-1)
[3]
  Difference (95% CI): % CGM time <50 mg/dL (<2.8 mmol/L): −0.4 percentage points
  Difference (95% CI): % CGM time >180 mg/dL (>10.0 mmol/L): −5.1 percentage points
  Difference (95% CI): % CGM time >300 mg/dL (>16.7 mmol/L): −0.3 percentage points
  Difference (95% CI): CGM CV (%): −3.1%
  Difference (95% CI): CGM HBGI: −1.1
  Difference (95% CI): CGM LBGI: 0.3
  Difference (95% CI): CGM SD: -8.2 mg/dL
  Difference (95% CI): Mean CGM glucose: -9.8 mg/dL
[4]
  Difference (95% CI): % CGM time >180 mg/dL (>10.0 mmol/L): −18.2 percentage points
  Difference (95% CI): % CGM time >250 mg/dL (>13.9 mmol/L): −13.9 percentage points
  Difference (95% CI): % CGM time >300 mg/dL (>16.7 mmol/L): −4.8 percentage points
  Difference (95% CI): CGM HBGI: −6.2
  Difference (95% CI): CGM LBGI: 0.2
  Difference (95% CI): CGM SD: -17.2 mg/dL
[5]
  decrease in time in hyperglycemia: 7.6%
  increase in percent TIR: 17%
overnight, n = 16, mean ± SD
  % CGM time 70-140 mg/dL (3.9-7.8 mmol/L): 54 ± 21%
  % CGM time 70-180 mg/dL (3.9-10.0 mmol/L): 76 ± 21%
  CGM CV (%): 30.5 ± 4.2%
  CGM SD: 44.5 ± 14 mg/dL
  Mean CGM glucose: 145 ± 41 mg/dL
overnight, n = 16
  % CGM time <50 mg/dL (<2.8 mmol/L): 0(0-0.5) %
  % CGM time <60 mg/dL (<3.3 mmol/L): 0.5(0.1-1.1) %
  % CGM time <70 mg/dL (<3.9 mmol/L): 1.5(0.4-2.7) %
  % CGM time >180 mg/dL (>10.0 mmol/L): 16.2(7-30.8) %
  % CGM time >250 mg/dL (>13.9 mmol/L): 0.1(0-2.4) %
  % CGM time >300 mg/dL (>16.7 mmol/L): 0(0-0.2) %
  CGM HBGI: 3.3(2.1-5.2)
  CGM LBGI: 0.7(0.4-1.4)
overnight, out of 8 h of the night-time, listed as PLGS-EMPA
  night-time in range, h out of 8 h: 6 h

— patent US20250345512A1, “COMBINATION SODIUM-GLUCOSE COTRANSPORTER INHIBITOR (SGLTI) INSULIN THERAPY FOR GLYCEMIC CONTROL IN TYPE 1 DIABETES” (University of Virginia Patent Foundation, priority 2022, published 2025)
